Measurements: patent publication US11839613B2, “Pyrimidine derivatives as PGE2 receptor modulators” (IDORSIA PHARMACEUTICALS LTD, priority 2017, dated 2023)
pIC50: −log10 of the molar value.

Assays:
[1] = target: EP2 (Homo sapiens (Human), UniProt P43116); experiment: hEP2 cAMP assay (SF295 glioblastoma cells, HTRF cAMP); assay type: cell-based; details: antagonistic activity
Method in brief: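 PGE2-driven cAMP accumulation was measured by HTRF in SF295 cells, which express endogenous EP2 only. Cells in assay buffer with 2 mM IBMX were pre-incubated 45 min at RT, then incubated 30 min at RT. Detection used competition between cellular cAMP and d2-cAMP for a cryptate anti-cAMP antibody.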

[2] = target: EP4 (Homo sapiens (Human), UniProt P35408); experiment: hEP4 cAMP assay (BT549 breast cancer cells, HTRF cAMP); assay type: cell-based; details: antagonistic activity, PGE2 6 nM
EP4, sequence (P35408 whole entry): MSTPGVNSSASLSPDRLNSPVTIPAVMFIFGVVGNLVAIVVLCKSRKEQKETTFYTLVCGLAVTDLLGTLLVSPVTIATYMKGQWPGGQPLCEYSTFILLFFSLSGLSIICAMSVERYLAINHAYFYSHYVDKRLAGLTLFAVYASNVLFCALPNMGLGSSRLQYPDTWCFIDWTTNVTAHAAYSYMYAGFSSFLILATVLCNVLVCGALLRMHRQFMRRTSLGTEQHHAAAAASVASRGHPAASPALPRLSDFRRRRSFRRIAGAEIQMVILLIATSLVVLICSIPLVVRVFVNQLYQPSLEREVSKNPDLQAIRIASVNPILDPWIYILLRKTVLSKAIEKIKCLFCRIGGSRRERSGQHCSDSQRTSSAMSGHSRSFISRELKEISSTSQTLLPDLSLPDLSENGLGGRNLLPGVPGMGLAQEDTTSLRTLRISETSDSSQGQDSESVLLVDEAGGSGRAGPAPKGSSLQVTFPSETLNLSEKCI
Method in brief: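 BT549 breast cancer cells (endogenous EP4) in HBSS/20 mM HEPES/0.2% BSA/2 mM IBMX preincubated 45 min at RT with compound, then stimulated 30 min at RT with 6 nM PGE2 (final). cAMP read by competitive HTRF immunoassay, signal inversely proportional to cAMP.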

[3] = target: PTGER2 (EP2) (Homo sapiens (Human), UniProt P43116); experiment: hEP2 b-arrestin assay (PathHunter HEK 293 PTGER2 b-arrestin cells); assay type: cell-based; details: antagonistic activity, beta-arrestin assay; read-out: hEP2 b-arr IC50
PTGER2 (EP2), sequence (P43116 whole entry): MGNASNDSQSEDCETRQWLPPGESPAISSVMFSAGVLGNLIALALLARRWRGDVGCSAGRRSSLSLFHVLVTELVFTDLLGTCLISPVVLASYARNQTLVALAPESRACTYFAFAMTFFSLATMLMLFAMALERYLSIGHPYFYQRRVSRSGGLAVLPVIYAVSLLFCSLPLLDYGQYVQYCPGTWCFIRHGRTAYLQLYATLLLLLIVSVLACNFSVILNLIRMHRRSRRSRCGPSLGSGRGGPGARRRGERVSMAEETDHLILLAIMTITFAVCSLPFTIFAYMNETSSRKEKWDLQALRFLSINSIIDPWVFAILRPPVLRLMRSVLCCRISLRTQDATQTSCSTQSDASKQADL
Protocol: Plate is pre-incubated 15 minutes at 37° C. Then five microliters of PGE2 (final conc. 5 μM) are transferred into the assay plate. Plate is incubated 120 minutes at 37° C.
(each concentration is measured in duplicate)

[4] = target: PTGER4 (EP4) (Homo sapiens (Human), UniProt P35408); experiment: cell-based
PTGER4 (EP4), sequence (P35408 whole entry): as the sequence (P35408 whole entry) above
From the text: The system is based on the Enzyme Fragment Complementation Technology. Two complementing fragments of the b-galactosidase enzyme are expressed within stably transfected cells. The larger portion of b-gal, termed EA for Enzyme Acceptor, is fused to the C-terminus of b-arrestin 2. The smaller fragment, termed ProLink™ tag, is fused to PTGER2 (EP2) or PTRGER4 (EP4) at the C-terminus. Upon activation, b-arrestin is recruited which forces the interaction of ProLink and EA, allowing complementation of the two fragments of b-gal and the formation of a functional enzyme which is capable of hydrolysing the substrate and generating a chemiluminescent signal.
Plate is incubated at 37° C., 5% CO2 for 24 hours.
Stock solutions of test compounds are made at a concentration of 10 mM in DMSO, and serially diluted in DMSO to concentrations required for inhibition dose response curves (tested concentration range 10 μM-2 nM or 1 μM-0.2 nM).
Five microliters of diluted compounds are transferred into the assay plate. Plate is pre-incubated 15 minutes at 37° C. Then five microliters of PGE2 (final conc. 20 nM) are transferred into the assay plate. Plate is incubated 120 minutes at 37° C.
Twelve I of reagent are transferred to the assay plate and incubate for 1 hour at RT in the dark. Luminescence counts are read on a BMG Fluostar Optima reader according to manufacturer's instructions.
For each compound concentration calculate of the percentage of activity compared to DMSO control value as average ±STDEV. (each concentration is measured in duplicate)

EP2, sequence (P43116 whole entry): as the sequence (P43116 whole entry) above

Row | SMILES | pIC50 [1] | pIC50 [2] | pIC50 [3] | pIC50 [4]
1 | CCSc1cc(-c2cc(NCCc3cc4ccoc4cc3OC)ncn2)ccc1C(=O)O [Ex 158, 2-Ethylsulfanyl-4-{6-[2-(6-methoxy-benzofuran-5-yl)-ethylamino]-pyrimidin-4-yl}-benzoic acid] | 7.80 | 6.80 | 7.64 | 6.73
2 | CCOc1cc(-c2cc(NCCc3cc4occc4cc3OC)ncn2)ccc1OCC(=O)O [Ex 159, (2-Ethoxy-4-{6-[2-(5-methoxy-benzofuran-6-yl)-ethylamino]-pyrimidin-4-yl}-phenoxy)-acetic acid] | 6.75 | 6.80 | 6.74 | 6.85
3 | Cc1c(CCNc2cc(-c3ccc(C(=O)O)c(OC4CCC4)c3)ncn2)ccc2ccccc12 [Ex 168] | 6.67 | 6.77 | 6.82 | 6.89
4 | CCCCOc1cc(-c2cc(NCCc3ccc4ccccc4c3C)ncn2)ccc1C(=O)O [Ex 169, 2-Butoxy-4-{6-[2-(1-methyl-naphthalen-2-yl)-ethylamino]-pyrimidin-4-yl}-benzoic acid] | 6.90 | 6.77 | 6.85 | 6.57
5 | CCOc1cc(-c2cc(NCCc3ccc4ccccc4c3C)ncn2)ccc1C(=O)O [Ex 172, 2-Ethoxy-4-{6-[2-(1-methyl-naphthalen-2-yl)-ethylamino]-pyrimidin-4-yl}-benzoic acid] | 6.86 | 6.74 | 6.80 | 6.54
6 | CCCOc1cc(-c2cc(NCCc3ccc4ccccc4c3C)ncn2)ccc1C(=O)O [Ex 183, 4-{6-[2-(1-Methyl-naphthalen-2-yl)-ethylamino]-pyrimidin-4-yl}-2-propoxy-benzoic acid] | 7.17 | 6.75 | 6.94 | 6.65
7 | CCOc1cc(-c2cc(NCCc3cc4c(cc3C)OCCO4)ncn2)ccc1OCC(=O)O [Ex 184, (2-Ethoxy-4-{6-[2-(7-methyl-2,3-dihydro-benzo[1,4]dioxin-6-yl)-ethylamino]-pyrimidin-4-yl}-phenoxy)-acetic acid] | 6.79 | 6.70 | 6.77 | 6.42
8 | CCOc1cc(-c2cc(NCCc3ccc4sccc4c3)ncn2)ccc1CC(=O)O [Ex 189] | 6.28 | 6.68 | 6.80 | 6.97
9 | CCOc1cc2c(cc1CCNc1cc(-c3ccc(CC(=O)O)c(OCC)c3)ncn1)OCCO2 [Ex 192, (2-Ethoxy-4-{6-[2-(7-ethoxy-2,3-dihydro-benzo[1,4]dioxin-6-yl)-ethylamino]-pyrimidin-4-yl}-phenyl)-acetic acid] | 7.16 | 6.68 | 7.12 | 6.82
10 | COc1cc2occc2cc1CCNc1cc(-c2ccc(C(=O)O)c(SC)c2)ncn1 [Ex 193, 4-{6-[2-(6-Methoxy-benzofuran-5-yl)-ethylamino]-pyrimidin-4-yl}-2-methylsulfanyl-benzoic acid] | 7.92 | 6.68 | 8.00 | 6.46
11 | CCOc1cc2c(cc1CCNc1cc(-c3ccc(C(=O)O)c(OC4CCC4)c3)ncn1)OCCO2 [Ex 196, 2-Cyclobutoxy-4-{6-[2-(7-ethoxy-2,3-dihydro-benzo[1,4]dioxin-6-yl)-ethylamino]-pyrimidin-4-yl}-benzoic acid] | 7.43 | 6.66 | 7.68 | 6.70
12 | COc1cc2c(cc1CCNc1cc(-c3ccc4c(C(=O)O)coc4c3)ncn1)OCCO2 [Ex 199, 6-{6-[2-(7-Methoxy-2,3-dihydro-benzo[1,4]dioxin-6-yl)-ethylamino]-pyrimidin-4-yl}-benzofuran-3-carboxylic acid] | 7.21 | 6.86 | 6.75 | 5.67
13 | O=C(O)c1ccc(-c2cc(NCCc3cc4ccoc4cc3F)ncn2)cc1OC1CCC1 [Ex 200] | 6.97 | 6.64 | 7.24 | 6.29
14 | CCOc1cc(-c2cc(NCCc3cc4c(cc3OC)OCCO4)ncn2)ccc1OC(C)C(=O)O (centres unmarked) [Ex 201] | 6.88 | 6.64 | 7.08 | 6.95
15 | CCOc1cc(-c2cc(NCCc3ccc4ccccc4c3C)ncn2)ccc1NCC(=O)O [Ex 205] | 6.72 | 6.61 | 6.93 | 7.33
16 | COc1cc2occc2c(C)c1CCNc1cc(-c2ccc(C(=O)O)c(OC3CCC3)c2)ncn1 [Ex 208, 2-Cyclobutoxy-4-{6-[2-(6-methoxy-4-methyl-benzofuran-5-yl)-ethylamino]-pyrimidin-4-yl}-benzoic acid] | 8.30 | 6.61 | 8.10 | 6.89

Row | SMILES | pIC50 [1] | pIC50 [2] | pIC50 [3] | pIC50 [4]
17 | CCOc1cc(-c2cc(NCCc3c(F)c(F)c4cc(C)oc4c3OC)ncn2)ccc1C(=O)O [Ex 215] | 6.19 | 6.59 | 5.80 | 6.42
18 | CCOc1cc(-c2cc(NCCc3cc4sccc4cc3OC)ncn2)ccc1C(=O)O [Ex 218] | 6.39 | 6.56 | 6.80 | 6.19
19 | CSc1cc(-c2cc(NCCc3ccc4occc4c3)ncn2)ccc1C(=O)O [Ex 248, 4-[6-(2-Benzofuran-5-yl-ethylamino)-pyrimidin-4-yl]-2-methylsulfanyl-benzoic acid] | 7.30 | 6.44 | 6.88 | 6.57
20 | CSc1cc(-c2cc(NCCc3ccc4ccoc4c3)ncn2)ccc1C(=O)O [Ex 250, 4-[6-(2-Benzofuran-6-yl-ethylamino)-pyrimidin-4-yl]-2-methylsulfanyl-benzoic acid] | 7.11 | 6.54 | 6.95 | 6.22
21 | CCOc1cc(-c2cc(NCCc3cc4ccsc4cc3C)ncn2)ccc1C(=O)O [Ex 254, 2-Ethoxy-4-{6-[2-(6-methyl-benzo[b]thiophen-5-yl)-ethylamino]-pyrimidin-4-yl}-benzoic acid] | 7.15 | 6.42 | 7.35 | 6.06
22 | CCOc1cc2c(cc1CCNc1cc(-c3ccc(C(=O)O)c(OCC)c3)ncn1)OCCO2 [Ex 261, 2-Ethoxy-4-{6-[2-(7-ethoxy-2,3-dihydro-benzo[1,4]dioxin-6-yl)-ethylamino]-pyrimidin-4-yl}-benzoic acid] | 7.70 | 6.39 | 7.28 | 6.40
23 | COc1cc2sccc2cc1CCNc1cc(-c2ccc(C(=O)O)cc2)ncn1 [Ex 276, 4-{6-[2-(6-Methoxy-benzo[b]thiophen-5-yl)-ethylamino]-pyrimidin-4-yl}-benzoic acid] | 7.33 | 6.32 | 7.10 | 5.74
24 | COc1cc2c(cc1CCNc1cc(-c3ccc(C(=O)O)c(SC)c3)ncn1)OCO2 [Ex 277, 4-{6-[2-(6-Methoxy-benzo[1,3]dioxol-5-yl)-ethylamino]-pyrimidin-4-yl}-2-methylsulfanyl-benzoic acid] | 7.85 | 6.49 | 7.29 | 6.36
25 | CCOc1cc(-c2cc(NCCc3cc4ccsc4cc3C)ncn2)ccc1CC(=O)O [Ex 290] | 6.71 | 6.28 | 6.79 | 6.36
26 | CCOc1cc(-c2cc(NCCc3cc4c(cc3OC)OCO4)ncn2)ccc1CC(=O)O [Ex 299] | 6.60 | 6.35 | 6.51 | 6.44
27 | COc1cc2c(cc1CCNc1cc(-c3ccc4c(C(=O)O)c[nH]c4c3)ncn1)OCCO2 [Ex 323] | 6.94 | 6.08 | 6.36 | 5.72
28 | CSc1cc(-c2cc(NCCc3ccc4cc[nH]c4c3)ncn2)ccc1C(=O)O [Ex 328, 4-{6-[2-(1H-Indol-6-yl)-ethylamino]-pyrimidin-4-yl}-2-methylsulfanyl-benzoic acid] | 6.97 | 6.03 | 6.54 | 6.04
29 | C=C(C(=O)O)c1ccc(-c2cc(NCCc3cc4c(cc3OC)OCCO4)ncn2)cc1 [Ex 337] | 5.88 | 5.84 | 6.18 | 5.88
30 | CCOc1cc(-c2cc(NCCc3ccc4ccccc4c3C)ncn2)sc1C(=O)O [Example 7, 3-Ethoxy-5-{6-[2-(1-methyl-naphthalen-2-yl)-ethylamino]-pyrimidin-4-yl}-thiophene-2-carboxylic acid] | 7.92 | 8.30 | 7.68 | 7.85
31 | CCOc1cc(-c2cc(NCCc3ccc4[nH]ccc4c3)ncn2)sc1-c1noc(=O)[nH]1 [Example 339, 3-(3-Ethoxy-5-{6-[2-(1H-indol-5-yl)-ethylamino]-pyrimidin-4-yl}-thiophen-2-yl)-[1,2,4]oxadiazol-5(4H)-one] | 7.05 | 7.66 | 7.18 | 8.00
32 | CCOc1cc(-c2cc(NCCc3ccc4sccc4c3)ncn2)sc1-c1noc(=O)[nH]1 [Example 340, 3-{5-[6-(2-Benzo[b]thiophen-5-yl-ethylamino)-pyrimidin-4-yl]-3-ethoxy-thiophen-2-yl}-[1,2,4]oxadiazol-5(4H)-one] | 6.98 | 7.96 | 7.92 | 8.52
